Laboratory results: article doi:10.1101/2024.08.19.608619, “Discovery of potent SARS-CoV-2 nsp3 macrodomain inhibitors uncovers lack of translation to cellular antiviral response” (bioRxiv, 2024)
Where two headings read alike, the source gives them in different places.

Tests used:
[1] = biological target: T1, SARS-CoV-2 nsp3-mac1 (Severe acute respiratory syndrome coronavirus 2, UniProt P0DTD1); experiment: biochemical; format: biochemical; conditions: SARS-CoV-2 nsp3 macrodomain TR-FRET single point
[2] = biological target: T1, SARS-CoV-2 nsp3-mac1; experiment: biochemical; parameters: SARS-CoV-2 nsp3 macrodomain TR-FRET single point, per cent inhibition, n=2
[3] = read-out: perc_inhibition_mean, batch_name=ASAP-0000268-001
[4] = read-out: perc_inhibition_mean, batch_name=ASAP-0000397-001
[5] = read-out: perc_inhibition_mean, batch_name=ASAP-0000429-001
[6] = read-out: perc_inhibition_mean, batch_name=ASAP-0000265-001
[7] = read-out: perc_inhibition_mean, batch_name=ASAP-0000303-001
[8] = read-out: perc_inhibition_mean, batch_name=ASAP-0000342-001
[9] = read-out: perc_inhibition_mean, batch_name=ASAP-0000425-001
[10] = read-out: perc_inhibition_mean, batch_name=ASAP-0000383-001
[11] = read-out: perc_inhibition_mean, batch_name=ASAP-0000359-001
[12] = read-out: perc_inhibition_mean, batch_name=ASAP-0000199-002
[13] = read-out: perc_inhibition_mean, batch_name=ASAP-0000306-001
[14] = read-out: perc_inhibition_mean, batch_name=ASAP-0000317-001
[15] = read-out: perc_inhibition_mean, batch_name=ASAP-0000337-001
[16] = read-out: perc_inhibition_mean, batch_name=ASAP-0000351-001
[17] = read-out: perc_inhibition_mean, batch_name=ASAP-0000418-001
[18] = read-out: perc_inhibition_mean, batch_name=ASAP-0000338-001
[19] = read-out: perc_inhibition_mean, batch_name=ASAP-0000390-001

SMILES: Cc1cccc([C@@H]2CCCN2c2ncnc3[nH]ccc23)n1 [ASAP-0000108]
- perc_inhibition_mean ([1]; concentration 50.0 uM): 0.182%
- inhibition at 50 µM ([2]; read-out: perc_inhibition_mean, batch_name=ASAP-0000108-001): 0.182%

SMILES: Cc1nc(NC(=O)c2ccnn2C(C)C)c2cc[nH]c2n1 [ASAP-0000268]
- perc_inhibition_mean ([1]; concentration 50.0 uM, n=2): -2.642%
- perc_inhibition_mean ([1]; concentration 100.0 uM, n=2): -4.346%
- inhibition at 50 µM [2, 3]: -2.64%
- inhibition at 100 µM [2, 3]: -4.35%

SMILES: c1ccc(-c2nc(CNc3cccnc3)cs2)nc1 [ASAP-0000123]
- perc_inhibition_mean ([1]; concentration 50.0 uM): -9.865%
- inhibition at 50 µM ([2]; read-out: perc_inhibition_mean, batch_name=ASAP-0000123-001): -9.87%

SMILES: O=C(CCN(Cc1cccc(Cl)c1)C(=O)c1ncccc1Cl)N1CCNCC1 [ASAP-0000397]
- perc_inhibition_mean ([1]; concentration 49.75 uM): 2.753%
- perc_inhibition_mean ([1]; concentration 99.5 uM): 7.518%
- inhibition at 49.75 µM [2, 4]: 2.75%
- inhibition at 99.5 µM [2, 4]: 7.52%

SMILES: CSc1ccccc1NC(=O)c1ncnc2[nH]ccc12 [ASAP-0000190]
- perc_inhibition_mean ([1]; concentration 50.0 uM): -5.805%
- inhibition at 50 µM ([2]; read-out: perc_inhibition_mean, batch_name=ASAP-0000190-001): -5.8%

SMILES: O=C(OCC(Br)=C1CCOCC1)c1ncnc2[nH]ccc12 [ASAP-0000039]
- perc_inhibition_mean ([1]; concentration 50.0 uM): -5.359%
- inhibition at 50 µM ([2]; read-out: perc_inhibition_mean, batch_name=ASAP-0000039-001): -5.36%

SMILES: CC1OCCC1(O)CNC(=O)c1ncnc2[nH]ccc12 (stereo not drawn) [ASAP-0000065]
- perc_inhibition_mean ([1]; concentration 50.0 uM): 1.864%
- inhibition at 50 µM ([2]; read-out: perc_inhibition_mean, batch_name=ASAP-0000065-001): 1.86%

SMILES: Cc1nc(NC(=O)Cn2cnc3ccccc3c2=O)c2cc[nH]c2n1 [ASAP-0000429]
- perc_inhibition_mean ([1]; concentration 49.75 uM): -4.067%
- perc_inhibition_mean ([1]; concentration 99.5 uM): -4.886%
- inhibition at 49.75 µM [2, 5]: -4.07%
- inhibition at 99.5 µM [2, 5]: -4.89%

SMILES: CCC(CC)(C(=O)Nc1nc(C)nc2[nH]ccc12)C(=O)OC(C)(C)C [ASAP-0000265]
- perc_inhibition_mean ([1]; concentration 50.0 uM, n=2): -9.456%
- perc_inhibition_mean ([1]; concentration 100.0 uM, n=2): -4.708%
- inhibition at 50 µM [2, 6]: -9.46%
- inhibition at 100 µM [2, 6]: -4.71%

SMILES: O=C(Nc1ccccc1)Nc1ccc(C(=O)N2CCn3nccc3C2)cc1 [ASAP-0000303]
- perc_inhibition_mean ([1]; concentration 49.75 uM, n=2): -3.111%
- perc_inhibition_mean ([1]; concentration 99.5 uM, n=2): 2.299%
- inhibition at 49.75 µM [2, 7]: -3.11%
- inhibition at 99.5 µM [2, 7]: 2.3%

SMILES: O[C@H]1C[C@](CNc2ncnc3[nH]ccc23)(c2ccccc2)C1 [ASAP-0000080]
- perc_inhibition_mean ([1]; concentration 50.0 uM): 11.369%
- inhibition at 50 µM ([2]; read-out: perc_inhibition_mean, batch_name=ASAP-0000080-001): 11.4%

SMILES: O=C(Nc1ccccc1)Nc1ccc(C(=O)Nc2cnnc(Cl)c2)cc1 [ASAP-0000342]
- perc_inhibition_mean ([1]; concentration 49.75 uM, n=2): -1.718%
- perc_inhibition_mean ([1]; concentration 99.5 uM, n=2): -0.19%
- inhibition at 49.75 µM [2, 8]: -1.72%
- inhibition at 99.5 µM [2, 8]: -0.19%

SMILES: COC[C@@H](Nc1ncnc2nc[nH]c12)c1ccc(C)o1 [ASAP-0000425]
- perc_inhibition_mean ([1]; concentration 49.75 uM): -4.638%
- perc_inhibition_mean ([1]; concentration 99.5 uM): 3.942%
- inhibition at 49.75 µM [2, 9]: -4.64%
- inhibition at 99.5 µM [2, 9]: 3.94%

SMILES: O=C(c1c[nH]c(=O)cn1)N1CCC(c2ccn3ncc(C(=O)N4CCCCC4)c3c2)CC1 [ASAP-0000383]
- perc_inhibition_mean ([1]; concentration 49.75 uM): -49.044%
- perc_inhibition_mean ([1]; concentration 99.5 uM): 45.826%
- inhibition at 49.75 µM [2, 10]: -49%
- inhibition at 99.5 µM [2, 10]: 45.8%

SMILES: Cc1cncc(NCc2csc(-c3ccccn3)n2)c1 [ASAP-0000122]
- perc_inhibition_mean ([1]; concentration 50.0 uM): -5.024%
- inhibition at 50 µM ([2]; read-out: perc_inhibition_mean, batch_name=ASAP-0000122-001): -5.02%

SMILES: O=C(Cc1ccns1)Nc1ncnc2[nH]cnc12 [ASAP-0000359]
- perc_inhibition_mean ([1]; concentration 49.75 uM): -9.501%
- perc_inhibition_mean ([1]; concentration 99.5 uM): -3.24%
- inhibition at 49.75 µM [2, 11]: -9.5%
- inhibition at 99.5 µM [2, 11]: -3.24%

SMILES: c1nc(-c2nc(-c3cc(C4CC4)[nH]n3)no2)c2cc[nH]c2n1 [ASAP-0000199]
- perc_inhibition_mean ([1]; concentration 50.0 uM): -2.809%
- perc_inhibition_mean ([1]; concentration 50.0 uM, n=2): -4.799%
- perc_inhibition_mean ([1]; concentration 100.0 uM, n=2): -2.454%
- inhibition at 50 µM ([2]; read-out: perc_inhibition_mean, batch_name=ASAP-0000199-001): -2.81%
- inhibition at 50 µM [2, 12]: -4.8%
- inhibition at 100 µM [2, 12]: -2.45%

SMILES: NCC(F)(F)CNC(=O)c1ccc(NC(=O)Nc2ccccc2)cc1 [ASAP-0000306]
- perc_inhibition_mean ([1]; concentration 49.75 uM, n=2): -0.965%
- perc_inhibition_mean ([1]; concentration 99.5 uM, n=2): -1.174%
- inhibition at 49.75 µM [2, 13]: -0.965%
- inhibition at 99.5 µM [2, 13]: -1.17%

SMILES: O=C(Nc1ccccc1)Nc1ccc(C(=O)Nc2nnc(C(F)(F)F)[nH]2)cc1 [ASAP-0000317]
- perc_inhibition_mean ([1]; concentration 49.75 uM, n=2): -3.198%
- perc_inhibition_mean ([1]; concentration 99.5 uM, n=2): -1.459%
- inhibition at 49.75 µM [2, 14]: -3.2%
- inhibition at 99.5 µM [2, 14]: -1.46%

SMILES: COCc1cc(CC(=O)Nc2ncnc3[nH]cnc23)no1 [ASAP-0000129]
- perc_inhibition_mean ([1]; concentration 50.0 uM): 2.968%
- inhibition at 50 µM ([2]; read-out: perc_inhibition_mean, batch_name=ASAP-0000129-001): 2.97%

SMILES: O=C(NCC1(O)CCOCC1)c1cnn2ccc(C3CCN(C(=O)c4ccccc4)CC3)cc12 [ASAP-0000337]
- perc_inhibition_mean ([1]; concentration 49.75 uM, n=2): -3.965%
- perc_inhibition_mean ([1]; concentration 99.5 uM, n=2): -1.103%
- inhibition at 49.75 µM [2, 15]: -3.96%
- inhibition at 99.5 µM [2, 15]: -1.1%

SMILES: Cc1noc([C@@H]2CCCN(c3ncnc4[nH]ccc34)C2)n1 [ASAP-0000043]
- perc_inhibition_mean ([1]; concentration 50.0 uM): 1.916%
- inhibition at 50 µM ([2]; read-out: perc_inhibition_mean, batch_name=ASAP-0000043-001): 1.92%

SMILES: COc1cc(CNc2cnc3[nH]ncc3c2)ccc1Cl [ASAP-0000029]
- perc_inhibition_mean ([1]; concentration 50.0 uM): -2.794%
- inhibition at 50 µM ([2]; read-out: perc_inhibition_mean, batch_name=ASAP-0000029-001): -2.79%

SMILES: Cc1cnc(C(=O)N(CCC(=O)N2CCNCC2)Cc2cccc(Cl)c2)nc1 [ASAP-0000351]
- perc_inhibition_mean ([1]; concentration 49.75 uM, n=2): -1.487%
- perc_inhibition_mean ([1]; concentration 99.5 uM, n=2): 6.47%
- inhibition at 49.75 µM [2, 16]: -1.49%
- inhibition at 99.5 µM [2, 16]: 6.47%

SMILES: Cn1ncnc1C(=O)N1CCC(c2ccn3ncc(C(=O)N4CCCCC4)c3c2)CC1 [ASAP-0000418]
- perc_inhibition_mean ([1]; concentration 49.75 uM): 2.38%
- perc_inhibition_mean ([1]; concentration 99.5 uM): 20.346%
- inhibition at 49.75 µM [2, 17]: 2.38%
- inhibition at 99.5 µM [2, 17]: 20.3%

SMILES: COc1ccccc1CN(C[C@@H]1CCCO1)c1ncnc2[nH]ccc12 [ASAP-0000107]
- perc_inhibition_mean ([1]; concentration 50.0 uM): 4.74%
- inhibition at 50 µM ([2]; read-out: perc_inhibition_mean, batch_name=ASAP-0000107-001): 4.74%

SMILES: O=C(Nc1cnc2[nH]ncc2c1)c1ccccc1CN1CCOCC1 [ASAP-0000012]
- perc_inhibition_mean ([1]; concentration 50.0 uM): -3.239%
- inhibition at 50 µM ([2]; read-out: perc_inhibition_mean, batch_name=ASAP-0000012-001): -3.24%

SMILES: CNC[C@@H]1CCCN1C(=O)c1cnn2ccc(C3CCN(C(=O)c4ccccc4)CC3)cc12 [ASAP-0000338]
- perc_inhibition_mean ([1]; concentration 49.75 uM, n=2): -1.474%
- perc_inhibition_mean ([1]; concentration 99.5 uM, n=2): -2.203%
- inhibition at 49.75 µM [2, 18]: -1.47%
- inhibition at 99.5 µM [2, 18]: -2.2%

SMILES: Cc1nc(C(=O)N2CCC(c3ccn4ncc(C(=O)N5CCCCC5)c4c3)CC2)c(C)[nH]1 [ASAP-0000390]
- perc_inhibition_mean ([1]; concentration 49.75 uM): 16.798%
- perc_inhibition_mean ([1]; concentration 99.5 uM): 27.519%
- inhibition at 49.75 µM [2, 19]: 16.8%
- inhibition at 99.5 µM [2, 19]: 27.5%

SMILES: Cc1[nH]c2ncnc(NC(=O)C3CCC(F)(F)CC3)c2c1C [ASAP-0000020]
- perc_inhibition_mean ([1]; concentration 50.0 uM): 2.148%
- inhibition at 50 µM ([2]; read-out: perc_inhibition_mean, batch_name=ASAP-0000020-001): 2.15%
